{"source": "paper PMC6895180", "about": "(Nature Communications, 2019)", "key": {"[1]": {"tested_on": "B48: pentamidine, diminazene and melaminophenyl arsenical resistant T. brucei line", "assay": "microbe, parasite or virus in culture", "type": "cell-based, Trypanosoma brucei brucei"}, "[2]": {"tested_on": "TbAT1-KO: T. brucei cell line lacking the TbAT1(P2) transporter gene", "assay": "microbe, parasite or virus in culture", "type": "cell-based, Trypanosoma brucei brucei", "how_it_was_run": "(§1)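 Trypanosomes (2 × 10^4 cells/well) exposed 48 h at 37 °C/5% CO2 in HMI-9/FBS to 23-step doubling dilutions from 100 µM, then resazurin added for a further 24 h. Fluorescence fitted to a variable-slope sigmoid curve.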"}, "[3]": {"tested_on": "ISMR1: isometamidium-resistant T. brucei cell line", "assay": "microbe, parasite or virus in culture", "type": "cell-based, Trypanosoma brucei brucei", "how_it_was_run": "as §1"}, "[4]": {"assay": "Cytotoxicity on MRC-5 fibroblasts (resazurin)", "type": "cell-based, human", "conditions": "human, MRC-5SV2 human embryonic lung fibroblasts, source data; read-out: MRC-5 EC50, single measurements", "experimental": "(§2) Cytotoxicity assays were performed on MRC-5SV2 (Sigma-Aldrich/ECACC, catalogue number 84100401) human embryonic lung fibroblasts, which were cultured in minimum essential medium with Earle’s salt medium, supplemented with L-glutamine, NaHCO3 and 5% inactivated foetal calf serum. All cultures and assays were conducted at 37 °C with 5% CO2. Ten microliters of the aqueous compound dilutions were added to 190 µL of MRC-5SV2 (3 × 10^4 cells mL^−1). Cell growth was compared to untreated control wells (100% cell growth) and medium control wells (0% cell growth). After a 3-day incubation, cell viability was assessed fluorimetrically after the addition of 50 μL resazurin per well (final concentration of 10 µg mL^−1). After 4 h at 37 °C, fluorescence was measured (λex 550 nm, λem 590 nm). The results were expressed as percentage reduction in cell growth/viability compared to control wells and an EC50 was determined."}, "[5]": {"tested_on": "MRC-5SV2 human embryonic lung fibroblasts", "assay": "Cytotoxicity on MRC-5 fibroblasts (resazurin)", "type": "cell-based", "conditions": "source data; read-out: MRC-5 EC50, single measurements", "experimental": "as §2"}, "[6]": {"tested_on": "T. b. rhodesiense STIB-900", "assay": "microbe, parasite or virus in culture", "type": "cell-based, Trypanosoma brucei rhodesiense", "experimental": "(§3) Drug susceptibility tests with Lister 427WT, TbAT1-KO[48], B48[26] and ISMR1[27] were performed using an assay based on the viability indicator dye resazurin in 96-well plates, each well containing 2 × 10^4 cells. The plates were incubated for 48 h with a doubling dilution series of the test compounds in HMI-9/fetal bovine serum at 37 °C/5% CO2 (23 dilutions starting at 100 µM, except for the pentamidine control (50 µM)), after which resazurin (20 µL of 125 µg mL^−1 resazurin sodium salt solution was added to each well (containing 200 µL of cells and test compound)) was added to each well and the plates incubated for another 24 h. Fluorescence was determined using a FLUOstar Optima (BMG Labtech, Durham, NC) and the results fitted to a sigmoid curve with variable slope using Prism 5.0 or Prism 7.04 (GraphPad, San Diego, CA).\n(§4) Susceptibility assays with T. brucei Squib 427[49] or T. b. rhodesiense STIB-900[50] were performed under similar conditions as above, but using 10 concentrations of a 4-fold compound dilution series starting at 64 µM. Trypanosoma brucei Squib 427 was seeded at 1.5 × 10^4 parasites/well and T. b. rhodesiense at 4 × 10^3 parasites per well, followed by the addition of resazurin (final concentration of 10 µg mL^−1) after 24 h (T. brucei) or 6 h (T. b. rhodesiense)."}, "T. brucei Squib 427": {"tested_on": "T. brucei Squib 427", "assay": "microbe, parasite or virus in culture", "type": "cell-based, Trypanosoma brucei brucei", "experimental": "as §3, §4"}, "[7]": {"tested_on": "T. b. brucei Lister 427WT", "assay": "Drug susceptibility test (resazurin), Lister 427WT", "type": "cell-based, Trypanosoma brucei brucei", "how_it_was_run": "as §1"}, "[8]": {"conditions": "resistance factor vs Lister 427WT"}}, "note": "“And” between values parts separate entries of the source, which are not always exact repeats. Equal values may be shown once. Read-outs that look alike come from different tables or passages of the source. Marks after values point to notes of the source that are not given here.", "data": [{"smiles": "Nc1ncnc2c1c(Br)cn2[C@H]1C[C@H](O)[C@@H](CO)O1", "note": "[Compound 12, 7-Br-2′-deoxy-TUB]", "values": [{"measurement": "EC50", "setting": "[1]; Trypanosoma brucei, mean and SEM, n = 3, read-out: B48 EC50", "result": "830 ± 160", "unit": "nM"}, {"measurement": "EC50", "setting": "[1]; Trypanosoma brucei, source data, read-out: B48 EC50, AVG", "result": 827, "unit": "nM"}, {"measurement": "EC50", "setting": "[1]; Trypanosoma brucei, source data, read-out: B48 EC50, single determinations", "result": 990, "unit": "nM"}, {"measurement": "RF (B48)", "setting": "[1]; [8]", "result": "2.64**"}, {"measurement": "EC50", "setting": "[1]; source data, read-out: B48 EC50, single determinations", "result": "664 nM and 844 nM"}, {"measurement": "EC50", "setting": "[2]; Trypanosoma brucei, read-out: TbAT1-KO EC50, AVG, source data", "result": 758, "unit": "nM"}, {"measurement": "EC50", "setting": "[2]; Trypanosoma brucei, read-out: TbAT1-KO EC50, mean and SEM, n = 3", "result": "760 ± 180", "unit": "nM"}, {"measurement": "EC50", "setting": "[2]; Trypanosoma brucei, read-out: TbAT1-KO EC50, single determinations, source data", "result": 940, "unit": "nM"}, {"measurement": "EC50", "setting": "[2]; read-out: TbAT1-KO EC50, single determinations, source data", "result": "576 nM and 850 nM"}, {"measurement": "RF (TbAT1-KO)", "setting": "[2]; resistance factor: ratio of EC50 of resistant and Lister 427WT", "result": "2.37*"}, {"measurement": "EC50", "setting": "[3]; Trypanosoma brucei, mean and SEM, n = 3, read-out: ISMR1 EC50", "result": "920 ± 120", "unit": "nM"}, {"measurement": "EC50", "setting": "[3]; Trypanosoma brucei, source data, read-out: ISMR1 EC50, AVG", "result": 919, "unit": "nM"}, {"measurement": "EC50", "setting": "[3]; Trypanosoma brucei, source data, read-out: ISMR1 EC50, single determinations", "result": 1150, "unit": "nM"}, {"measurement": "RF (ISMR1)", "setting": "[3]; [8]", "result": "2.93**"}, {"measurement": "EC50", "setting": "[3]; source data, read-out: ISMR1 EC50, single determinations", "result": "731 nM and 876 nM"}, {"measurement": "EC50 at 3 day", "setting": "[4]", "result": 6830, "unit": "nM"}, {"measurement": "EC50", "setting": "[5]", "result": 5370, "unit": "nM"}, {"measurement": "EC50", "setting": "[6]; Trypanosoma brucei, RHODESIENSE, Alamar blue cell viability assay, mean and SEM, read-out: T. b. rhodesiense EC50", "result": "120 ± 10", "unit": "nM"}, {"measurement": "EC50", "setting": "[6]; Trypanosoma brucei, RHODESIENSE, source data, read-out: T. brucei rhodesiense EC50, Average", "result": 120, "unit": "nM"}, {"measurement": "EC50", "setting": "[6]; Trypanosoma brucei, RHODESIENSE, source data, read-out: T. brucei rhodesiense EC50, single measurements", "result": 116, "unit": "nM"}, {"measurement": "SI (MRC/T.b. rhodesiense)", "setting": "[6]; selectivity index", "result": 50}, {"measurement": "EC50", "setting": "[6]; source data, read-out: T. brucei rhodesiense EC50, single measurements", "result": 126, "unit": "nM"}, {"measurement": "EC50", "setting": "T. brucei Squib 427; Trypanosoma brucei, Alamar blue cell viability assay, mean and SEM, read-out: T. b. brucei EC50", "result": "460 ± 80", "unit": "nM"}, {"measurement": "EC50", "setting": "T. brucei Squib 427; Trypanosoma brucei, source data, read-out: T. brucei brucei EC50, Average", "result": 460, "unit": "nM"}, {"measurement": "EC50", "setting": "T. brucei Squib 427; Trypanosoma brucei, source data, read-out: T. brucei brucei EC50, single measurements", "result": 382, "unit": "nM"}, {"measurement": "SI (MRC/T.b. brucei)", "setting": "T. brucei Squib 427; selectivity index", "result": 13}, {"measurement": "EC50", "setting": "T. brucei Squib 427; source data, read-out: T. brucei brucei EC50, single measurements", "result": 533, "unit": "nM"}, {"measurement": "EC50", "setting": "[7]; Trypanosoma brucei, mean and SEM, n = 3, read-out: Lister 427 EC50", "result": "310 ± 63", "unit": "nM"}, {"measurement": "EC50", "setting": "[7]; Trypanosoma brucei, source data, read-out: s427 EC50, AVG", "result": 313, "unit": "nM"}, {"measurement": "EC50", "setting": "[7]; Trypanosoma brucei, source data, read-out: s427 EC50, single determinations", "result": 376, "unit": "nM"}, {"measurement": "EC50", "setting": "[7]; source data, read-out: s427 EC50, single determinations", "result": "251 nM and 355 nM"}]}]}
